# Test results as given in ChEMBL document CHEMBL2390917, “Synthesis and biological evaluation of 2-(5-methyl-4-phenyl-2-oxopyrrolidin-1-yl)-acetamide stereoisomers as novel positive allosteric modulators of sigma-1 receptor” (Bioorg Med Chem, 2013).
# Calls of active or inactive are those of the source. The rule behind the calls is not given here.
# How the values were obtained:
# [1] = target: Galanin receptor type 2 (Homo sapiens) (UniProt O43603); assay: Binding affinity to human GAL2 receptor at 10 uM by radioligand displacement assay relative to control
# Galanin receptor type 2 (Homo sapiens), sequence (O43603 whole entry): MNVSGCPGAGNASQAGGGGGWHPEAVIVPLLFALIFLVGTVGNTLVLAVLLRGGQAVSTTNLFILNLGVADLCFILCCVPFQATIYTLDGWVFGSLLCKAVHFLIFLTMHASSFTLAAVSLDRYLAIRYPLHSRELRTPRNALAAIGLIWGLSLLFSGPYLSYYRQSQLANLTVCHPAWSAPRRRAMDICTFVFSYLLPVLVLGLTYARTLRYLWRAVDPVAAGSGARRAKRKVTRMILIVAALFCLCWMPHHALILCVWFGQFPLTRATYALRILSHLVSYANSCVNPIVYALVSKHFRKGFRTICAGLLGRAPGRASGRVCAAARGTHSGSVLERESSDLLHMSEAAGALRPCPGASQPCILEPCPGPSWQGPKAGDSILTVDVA
# [2] = target: Melatonin receptor type 1A (Homo sapiens) (UniProt P48039); assay: Binding affinity to human ML1A receptor at 10 uM by radioligand displacement assay relative to control
# [3] = target: Sigma non-opioid intracellular receptor 1 (Homo sapiens, UniProt Q99720); assay: Binding affinity to sigma 1 receptor (unknown origin) at 10 uM by radioligand displacement assay
# Sigma non-opioid intracellular receptor 1, sequence (Q99720 whole entry): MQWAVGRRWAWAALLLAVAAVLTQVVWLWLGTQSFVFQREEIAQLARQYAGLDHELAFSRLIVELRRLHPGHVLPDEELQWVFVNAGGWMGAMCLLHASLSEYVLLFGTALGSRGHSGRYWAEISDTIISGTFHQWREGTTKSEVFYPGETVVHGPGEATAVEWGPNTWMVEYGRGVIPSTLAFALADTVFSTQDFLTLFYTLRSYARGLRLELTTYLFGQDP
# [4] = target: D(1B) dopamine receptor (Homo sapiens) (UniProt P21918); assay: Binding affinity to human dopamine D5 receptor at 10 uM by radioligand displacement assay relative to control
# D(1B) dopamine receptor (Homo sapiens), sequence (P21918 whole entry): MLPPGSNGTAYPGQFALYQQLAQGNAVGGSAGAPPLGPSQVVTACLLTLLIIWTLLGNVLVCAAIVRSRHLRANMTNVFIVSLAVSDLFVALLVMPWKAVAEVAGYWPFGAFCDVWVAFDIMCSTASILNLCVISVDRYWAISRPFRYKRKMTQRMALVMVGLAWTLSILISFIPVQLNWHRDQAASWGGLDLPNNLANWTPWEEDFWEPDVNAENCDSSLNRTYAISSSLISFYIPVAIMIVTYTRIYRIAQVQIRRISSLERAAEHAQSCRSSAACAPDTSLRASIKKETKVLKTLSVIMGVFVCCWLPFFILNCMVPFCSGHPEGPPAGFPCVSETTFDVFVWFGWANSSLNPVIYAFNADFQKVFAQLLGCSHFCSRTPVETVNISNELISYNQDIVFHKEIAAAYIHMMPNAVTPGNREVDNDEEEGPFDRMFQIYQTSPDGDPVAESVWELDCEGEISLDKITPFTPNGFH
# Mus musculus [5] = assay: Toxicity in ICR mouse assessed as effect on locomotor activity measured moved distance per 4 mins at 1 mg/kg, ip after 30 mins by open field test (reference value: 1124 121 cm); type: organism-based; design: dose 1 mg/kg, route intraperitoneal; conditions: in vivo
# [6] = target: 5-hydroxytryptamine receptor 7 (Homo sapiens) (UniProt P34969); assay: Binding affinity to human 5-HT7 receptor at 10 uM by radioligand displacement assay relative to control
# 5-hydroxytryptamine receptor 7 (Homo sapiens), sequence (P34969 whole entry): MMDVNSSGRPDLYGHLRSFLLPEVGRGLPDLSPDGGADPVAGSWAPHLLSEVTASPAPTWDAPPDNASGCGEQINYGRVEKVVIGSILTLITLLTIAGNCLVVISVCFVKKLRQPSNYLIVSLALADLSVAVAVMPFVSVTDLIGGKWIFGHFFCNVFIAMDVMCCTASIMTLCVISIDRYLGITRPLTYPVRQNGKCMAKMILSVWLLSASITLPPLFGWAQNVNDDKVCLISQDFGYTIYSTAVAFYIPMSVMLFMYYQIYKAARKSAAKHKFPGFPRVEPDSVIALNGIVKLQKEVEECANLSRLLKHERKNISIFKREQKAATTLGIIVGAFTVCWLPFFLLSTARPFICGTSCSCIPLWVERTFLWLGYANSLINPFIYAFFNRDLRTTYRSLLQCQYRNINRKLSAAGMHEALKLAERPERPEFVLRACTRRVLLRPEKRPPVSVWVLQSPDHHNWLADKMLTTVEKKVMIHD
# [7] = target: 5-hydroxytryptamine receptor 2C (Homo sapiens) (UniProt P28335); assay: Binding affinity to human 5-HT2C receptor at 10 uM by radioligand displacement assay relative to control
# 5-hydroxytryptamine receptor 2C (Homo sapiens), sequence (P28335 whole entry): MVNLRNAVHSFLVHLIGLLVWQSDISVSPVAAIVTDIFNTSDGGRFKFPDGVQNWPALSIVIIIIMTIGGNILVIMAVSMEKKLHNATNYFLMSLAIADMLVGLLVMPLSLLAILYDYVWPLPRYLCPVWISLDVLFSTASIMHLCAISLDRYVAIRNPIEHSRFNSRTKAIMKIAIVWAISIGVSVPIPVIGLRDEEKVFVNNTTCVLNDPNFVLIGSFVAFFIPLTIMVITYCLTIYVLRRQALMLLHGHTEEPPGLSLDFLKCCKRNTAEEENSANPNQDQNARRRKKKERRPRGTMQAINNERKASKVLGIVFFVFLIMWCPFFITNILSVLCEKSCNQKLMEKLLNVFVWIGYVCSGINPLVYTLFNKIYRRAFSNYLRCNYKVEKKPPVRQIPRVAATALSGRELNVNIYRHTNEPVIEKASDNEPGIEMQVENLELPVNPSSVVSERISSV
# [8] = target: 5-hydroxytryptamine receptor 1B (Homo sapiens) (UniProt P28222); assay: Binding affinity to 5-HT1B receptor (unknown origin) at 10 uM by radioligand displacement assay relative to control
# 5-hydroxytryptamine receptor 1B (Homo sapiens), sequence (P28222 whole entry): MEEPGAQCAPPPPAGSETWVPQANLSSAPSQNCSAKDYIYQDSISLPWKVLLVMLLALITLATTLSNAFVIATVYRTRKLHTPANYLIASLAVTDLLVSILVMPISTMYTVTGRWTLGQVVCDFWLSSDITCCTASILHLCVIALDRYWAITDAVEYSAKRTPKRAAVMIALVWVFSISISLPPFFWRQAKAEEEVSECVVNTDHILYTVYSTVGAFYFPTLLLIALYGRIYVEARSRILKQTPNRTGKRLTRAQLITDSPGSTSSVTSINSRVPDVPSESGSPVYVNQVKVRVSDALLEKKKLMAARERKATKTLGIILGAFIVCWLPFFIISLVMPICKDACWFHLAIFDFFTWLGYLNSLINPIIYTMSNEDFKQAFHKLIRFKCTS
# [9] = target: 5-hydroxytryptamine receptor 6 (Homo sapiens) (UniProt P50406); assay: Binding affinity to human 5-HT6 receptor at 10 uM by radioligand displacement assay relative to control
# [10] = target: Vasopressin V1a receptor (Homo sapiens) (UniProt P37288); assay: Binding affinity to human vasopressin V1a receptor at 10 uM by radioligand displacement assay relative to control
# Vasopressin V1a receptor (Homo sapiens), sequence (P37288 whole entry, looked up): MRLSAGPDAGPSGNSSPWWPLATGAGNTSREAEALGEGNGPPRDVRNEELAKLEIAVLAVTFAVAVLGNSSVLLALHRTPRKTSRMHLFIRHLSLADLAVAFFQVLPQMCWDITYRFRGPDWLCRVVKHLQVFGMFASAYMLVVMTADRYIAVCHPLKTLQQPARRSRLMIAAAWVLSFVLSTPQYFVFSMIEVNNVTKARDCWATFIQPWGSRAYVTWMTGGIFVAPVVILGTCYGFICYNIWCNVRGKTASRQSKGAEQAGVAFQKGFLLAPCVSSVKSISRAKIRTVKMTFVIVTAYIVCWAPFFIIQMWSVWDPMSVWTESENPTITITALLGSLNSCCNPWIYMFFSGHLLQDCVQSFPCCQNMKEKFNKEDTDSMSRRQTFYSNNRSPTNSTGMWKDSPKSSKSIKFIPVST
# Homo sapiens [11] = species: Homo sapiens; assay: Binding affinity to P2X receptor (unknown origin) at 10 uM by radioligand displacement assay relative to control
# Homo sapiens [12] = species: Homo sapiens; assay: Binding affinity to PCP receptor (unknown origin) at 10 uM by radioligand displacement assay relative to control
# Mus musculus [13] = assay: Antiamnesic activity in ICR mouse scopolamine-induced memory impairment model assessed as increase in retention latency at 10 mg/kg, ip administered 60 mins prior to scopolamine challenge measured after 40 mins by passive avoidance test relative to scopolamine-treated control; type: functional; conditions: route intraperitoneal
# Mus musculus [14] = assay: Toxicity in ICR mouse assessed as effect on locomotor activity measured moved distance per 4 mins at 10 mg/kg, ip after 30 mins by open field test (reference value: 1124 121 cm); type: organism-based; design: dose 10 mg/kg, route intraperitoneal; conditions: in vivo
# [15] = target: D(4) dopamine receptor (Homo sapiens) (UniProt P21917); assay: Binding affinity to human dopamine D4.4 receptor at 10 uM by radioligand displacement assay relative to control
# [16] = target: Gastrin/cholecystokinin type B receptor (Homo sapiens) (UniProt P32239); assay: Binding affinity to human CCK2 receptor at 10 uM by radioligand displacement assay relative to control
# Gastrin/cholecystokinin type B receptor (Homo sapiens), sequence (P32239 whole entry): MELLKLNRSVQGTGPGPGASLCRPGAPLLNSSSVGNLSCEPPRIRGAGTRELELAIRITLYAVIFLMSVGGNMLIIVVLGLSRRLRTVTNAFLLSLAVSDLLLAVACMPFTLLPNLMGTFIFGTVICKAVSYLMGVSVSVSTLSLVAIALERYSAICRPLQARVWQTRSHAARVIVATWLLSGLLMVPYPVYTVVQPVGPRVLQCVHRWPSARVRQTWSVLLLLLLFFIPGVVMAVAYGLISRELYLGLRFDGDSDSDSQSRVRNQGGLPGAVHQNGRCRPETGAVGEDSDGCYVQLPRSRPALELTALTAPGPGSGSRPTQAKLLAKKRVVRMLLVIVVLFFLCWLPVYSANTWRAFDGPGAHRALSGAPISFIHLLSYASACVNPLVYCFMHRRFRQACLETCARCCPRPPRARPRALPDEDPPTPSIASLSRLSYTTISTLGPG
# [17] = target: Histamine H1 receptor (Homo sapiens) (UniProt P35367); assay: Binding affinity to human histamine H1 receptor at 10 uM by radioligand displacement assay relative to control
# Histamine H1 receptor (Homo sapiens), sequence (P35367 whole entry): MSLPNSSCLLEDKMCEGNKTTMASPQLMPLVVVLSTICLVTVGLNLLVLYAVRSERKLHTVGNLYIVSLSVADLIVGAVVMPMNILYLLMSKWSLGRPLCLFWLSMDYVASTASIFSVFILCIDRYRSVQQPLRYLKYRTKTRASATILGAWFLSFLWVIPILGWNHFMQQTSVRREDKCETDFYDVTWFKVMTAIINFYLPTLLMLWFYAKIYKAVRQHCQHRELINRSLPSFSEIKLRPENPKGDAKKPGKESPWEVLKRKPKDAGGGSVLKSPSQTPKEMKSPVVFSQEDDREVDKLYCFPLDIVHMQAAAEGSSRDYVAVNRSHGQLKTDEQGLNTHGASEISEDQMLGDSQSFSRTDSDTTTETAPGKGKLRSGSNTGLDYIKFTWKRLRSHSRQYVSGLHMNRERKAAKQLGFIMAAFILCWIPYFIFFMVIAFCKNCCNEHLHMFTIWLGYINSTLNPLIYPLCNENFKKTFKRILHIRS
# [18] = target: C-X-C chemokine receptor type 2 (Homo sapiens) (UniProt P25025); assay: Binding affinity to human CXCR2 at 10 uM by radioligand displacement assay relative to control
# C-X-C chemokine receptor type 2 (Homo sapiens), sequence (P25025 whole entry): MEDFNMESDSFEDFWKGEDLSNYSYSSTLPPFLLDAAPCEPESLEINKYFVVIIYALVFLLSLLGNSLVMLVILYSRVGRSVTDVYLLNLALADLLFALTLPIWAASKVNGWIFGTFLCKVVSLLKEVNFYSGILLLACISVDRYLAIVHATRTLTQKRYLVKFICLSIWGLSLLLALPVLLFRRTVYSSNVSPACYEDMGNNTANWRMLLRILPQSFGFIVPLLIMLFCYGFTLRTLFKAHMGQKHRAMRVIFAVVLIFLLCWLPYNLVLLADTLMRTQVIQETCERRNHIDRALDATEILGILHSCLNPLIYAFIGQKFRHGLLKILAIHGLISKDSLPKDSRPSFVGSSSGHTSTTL
# [19] = target: voltage-gated potassium channel (Homo sapiens, UniProt O43525+O43526+O95259+P16389+P17658+P22001+P22459+P22460+P48547+P51787+P56696+Q03721+Q09470+Q12809+Q14003+Q14721+Q16322+Q6PIU1+Q8NCM2+Q8TAE7+Q8TDN1+Q8TDN2+Q92953+Q96KK3+Q96L42+Q96PR1+Q96RP8+Q9BQ31+Q9H252+Q9H3M0+Q9NR82+Q9NS40+Q9NSA2+Q9NZV8+Q9UIX4+Q9UJ96+Q9UK17+Q9ULD8+Q9ULS6+Q9UQ05); assay: Binding affinity to voltage-gated potassium channel (unknown origin) at 10 uM by radioligand displacement assay relative to control; type: protein assay
# [20] = target: Nociceptin receptor (Homo sapiens) (UniProt P41146); assay: Binding affinity to ORL1 receptor (unknown origin) at 10 uM by radioligand displacement assay relative to control
# Nociceptin receptor (Homo sapiens), sequence (P41146 whole entry): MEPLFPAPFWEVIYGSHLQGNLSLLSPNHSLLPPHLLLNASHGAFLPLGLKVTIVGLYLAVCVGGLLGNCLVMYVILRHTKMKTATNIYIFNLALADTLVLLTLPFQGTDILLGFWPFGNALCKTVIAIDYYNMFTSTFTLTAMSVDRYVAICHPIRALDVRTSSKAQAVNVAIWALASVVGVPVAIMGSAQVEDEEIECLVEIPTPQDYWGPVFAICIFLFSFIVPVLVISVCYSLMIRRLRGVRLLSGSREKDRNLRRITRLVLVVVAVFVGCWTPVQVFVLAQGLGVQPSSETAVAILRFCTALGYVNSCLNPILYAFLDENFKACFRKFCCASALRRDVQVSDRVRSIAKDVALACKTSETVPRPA
# [21] = target: Endothelin receptor type B (Homo sapiens) (UniProt P24530); assay: Binding affinity to human ETB receptor at 10 uM by radioligand displacement assay relative to control
# Endothelin receptor type B (Homo sapiens), sequence (P24530 whole entry): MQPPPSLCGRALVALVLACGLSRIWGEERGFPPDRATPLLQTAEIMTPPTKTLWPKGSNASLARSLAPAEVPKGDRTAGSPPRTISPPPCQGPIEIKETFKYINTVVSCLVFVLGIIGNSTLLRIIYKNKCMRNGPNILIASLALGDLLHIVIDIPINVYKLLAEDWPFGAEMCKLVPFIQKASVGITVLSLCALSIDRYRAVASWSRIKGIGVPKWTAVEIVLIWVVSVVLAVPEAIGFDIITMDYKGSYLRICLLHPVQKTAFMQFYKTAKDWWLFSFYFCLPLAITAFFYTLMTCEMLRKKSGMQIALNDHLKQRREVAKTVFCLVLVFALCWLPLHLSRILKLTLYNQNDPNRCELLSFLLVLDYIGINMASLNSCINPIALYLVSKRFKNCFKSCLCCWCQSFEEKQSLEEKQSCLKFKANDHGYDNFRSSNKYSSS
# Mus musculus [22] = assay: Toxicity in ICR mouse assessed as effect on locomotor activity measured moved distance per 4 mins at 10 mg/kg, ip after 60 mins by open field test (reference value: 623 136 cm); type: organism-based; design: dose 10 mg/kg, route intraperitoneal; conditions: in vivo
# Homo sapiens [23] = species: Homo sapiens; assay: Binding affinity to human TNFalpha receptor at 10 uM by radioligand displacement assay relative to control
compound,measurement,setting,value
C[C@H]1[C@@H](c2ccccc2)CC(=O)N1CC(N)=O,inhibition,[1],-4%
same,inhibition,[2],-6%
same,Activity,[3],inactive
same,inhibition,[4],-3%
same,Activity,Mus musculus [5],1402 cm
same,inhibition,[6],-4%
same,inhibition,[7],-2%
same,inhibition,[8],0%
same,inhibition,[9],-10%
same,inhibition,[10],2%
same,inhibition,Homo sapiens [11],6%
same,inhibition,Homo sapiens [12],6%
same,Activity,Mus musculus [13],209%
same,Activity,Mus musculus [14],1026 cm
same,inhibition,[15],-3%
same,inhibition,[16],8%
same,inhibition,[17],-7%
same,inhibition,[18],2%
same,inhibition at 10 µM,[19],-2%
same,inhibition,[20],4%
same,inhibition,[21],2%
same,Activity,Mus musculus [22],640 cm
same,inhibition,Homo sapiens [23],-3%
